# Molecular target: SCD1 (Rattus norvegicus (Rat), UniProt P07308)
# Test: SCD1 enzymatic assay in rat liver microsomes (RLM)
# Assay type: biochemical
# Conditions: for inhibition at 1 µM: 1 μM test compound
# Description: Step 1: Preparation of Rat Liver Microsome (RLM)
# Sprague Dawley rats from Charles River (200-225 g) underwent 2-cycle of fast-re-feeding (24-hour fast followed by 24-hour feeding with fat-free high carbohydrate diet, Research Diet, D00042802). The livers were removed and homogenized 1:4 (w/v) with pre-chilled, homogenizing buffer (10 mM Tris-HCl, 0.25 M sucrose, 1 mM EDTA, pH 7.4, supplemented with protease inhibitor cocktail). The homogenate was spun at 12,000×g for 15 min at 4° C. The supernatant was then re-centrifuged at 100,000×g for 60 min at 4° C. The pellet was re-suspended in 2 ml pre-chilled […] potassium phosphate buffer, pH 7.2, 10 mM EDTA at a concentration of 20 mg/ml. The resulting rat liver microsome (RLM) preparation was stored at […].
# Step 2: SCD1 Enzymatic Assay in RLM:
# The SCD1 enzymatic assay was done in a volume of 50 μL using 10 μg of RLM (prepared as described above) in a 96-well polypropylene plate (enzyme reaction buffer contains 0.1 M K-Phosphate Buffer, 10 mM ATP, 6 mM MgCl2, 1 mM CoA, 1 mM β-NADH, 1.6 mM L-glutathione, 20 μM Stearoyl-CoA). Stearoyl-[9,10-^3H]—CoA (ARC-0390, 1 mCi/mL, 60 Ci/mmol,) was added at a final concentration of 2 μCi/mL. Test compound was then added to the reaction mixture at the selected concentration. After incubation at room temperature for 2 hours, 5 μL 1 N HCl was added to stop the reaction, followed by addition of 25 μL of 10% charcoal. The reaction mixture was then transferred to 96-well Multiscreen plate (Millipore, Cat# MSFCN6B50). [^3H2O] was collected into Opti-plate (PE, Cat #6005290) by centrifuge, at 1,000 rpm for 2 minutes. 150 μL Microscint 40 (PE, cat #6013641) was then added to each well and counted on Topcount for [^3H] counts per minute (cpm). The measured cpm values were fitted with Sigmoidal dose-response curve fit with Graphpad Prism.
# SCD1, sequence (P07308 whole entry): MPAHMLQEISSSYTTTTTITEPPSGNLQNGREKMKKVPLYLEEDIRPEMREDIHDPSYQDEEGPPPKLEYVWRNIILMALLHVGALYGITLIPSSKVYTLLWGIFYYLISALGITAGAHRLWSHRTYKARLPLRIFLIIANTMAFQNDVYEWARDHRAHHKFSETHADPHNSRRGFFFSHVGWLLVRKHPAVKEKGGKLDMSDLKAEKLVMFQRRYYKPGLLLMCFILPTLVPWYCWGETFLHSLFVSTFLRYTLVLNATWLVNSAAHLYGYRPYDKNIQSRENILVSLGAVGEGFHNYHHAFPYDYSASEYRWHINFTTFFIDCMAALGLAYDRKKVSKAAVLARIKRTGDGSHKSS
SMILES,IC50,inhibition at 1 µM
"CCCc1nc2ccc(NC(=O)N3CCC(c4noc5ccc(F)cc45)CC3)cc2o1 [Compound 7, 4-(5-fluorobenzo[d]isoxazol-3-yl)-N-(2-propylbenzo[d]oxazol-6-yl)piperidine-1-carboxamide]",1010 nM,55%
"CNC(=O)c1cccc(NC(=O)N2CCC(N3C(=O)Cc4ccccc43)CC2)c1 [Compound 1, N-(3-(methylcarbamoyl)phenyl)-4-(2-oxoindolin-1-yl)piperidine-1-carboxamide]",–,7%
"NC(=O)c1cc(NC(=O)N2CCC(N3CCc4ccc(F)cc43)CC2)ccc1CO [Compound 48, N-(3-carbamoyl-4-(hydroxymethyl)phenyl)-4-(6-fluoroindolin-1-yl)piperidine-1-carboxamide]",909 nM,55%
"NC(=O)c1csc(NC(=O)N2CCC(N3CCc4ccc(F)cc43)CC2)n1 [Compound 26, 2-(4-(6-fluoroindolin-1-yl)piperidine-1-carboxamido)thiazole-4-carboxamide]",682 nM,62%
"COC(=O)Cc1cnc(NC(=O)N2CCC(c3noc4ccc(F)cc34)CC2)s1 [Compound 52, methyl 2-(2-(4-(5-fluorobenzo[d]isoxazol-3-yl)piperidine-1-carboxamido)thiazol-5-yl)acetate]",–,15%
"CCOC(=O)CN1CCc2nc(NC(=O)N3CCC(N4CCc5ccc(F)cc54)CC3)sc2C1 [Compound 56, ethyl 2-(2-(4-(6-fluoroindolin-1-yl)piperidine-1-carboxamido)-6,7-dihydrothiazolo[5,4-c]pyridin-5(4H)-yl)acetate]",–,42%
"CCN1CCc2nc(NC(=O)N3CCC(N4CCc5ccc(F)cc54)CC3)sc2C1 [Compound 53, N-(5-ethyl-4,5,6,7-tetrahydrothiazolo[5,4-c]pyridin-2-yl)-4-(6-fluoroindolin-1-yl)piperidine-1-carboxamide]",–,34%
"CNC(=O)c1cccc(NC(=O)N2CCC(c3noc4cc(F)ccc34)CC2)c1 [Compound 10, 4-(6-fluorobenzo[d]isoxazol-3-yl)-N-(3-(methylcarbamoyl)phenyl)piperidine-1-carboxamide]",–,23%
"CC(C)(C)[Si](C)(C)OC1CCc2nc(NC(=O)N3CCC(N4CCc5ccc(F)cc54)CC3)sc2C1 (stereo not drawn) [Compound 32, N-(6-((tert-butyldimethylsilyl)oxy)-4,5,6,7-tetrahydrobenzo[d]thiazol-2-yl)-4-(6-fluoroindolin-1-yl)piperidine-1-carboxamide]",–,31%
"CNC(=O)Cc1csc(NC(=O)N2CCC(N3CCc4ccc(F)cc43)CC2)n1 [Compound 28, 4-(6-fluoroindolin-1-yl)-N-(4-(2-(methylamino)-2-oxoethyl)thiazol-2-yl)piperidine-1-carboxamide]",> 1000 nM,22%
"COC(=O)Cc1cnc(NC(=O)N2CCC(N3CCc4ccc(F)cc43)CC2)s1 [Compound 49, methyl 2-(2-(4-(6-fluoroindolin-1-yl)piperidine-1-carboxamido)thiazol-5-yl)acetate]",–,48%
"CCOC(=O)c1csc(NC(=O)N2CCC(N3CCc4ccc(F)cc43)CC2)n1 [Compound 22, ethyl 2-(4-(6-fluoroindolin-1-yl)piperidine-1-carboxamido)thiazole-4-carboxylate]",> 1000 nM,8%
"CC(=O)N1CCc2nc(NC(=O)N3CCC(N4CCc5ccc(F)cc54)CC3)sc2C1 [Compound 40, N-(5-acetyl-4,5,6,7-tetrahydrothiazolo[5,4-c]pyridin-2-yl)-4-(6-fluoroindolin-1-yl)piperidine-1-carboxamide]",–,46%
"CNC(=O)c1cccc(NC(=O)N2CCC(c3c[nH]c4ccccc34)CC2)c1 [Compound 64, 4-(1H-indol-3-yl)-N-(3-(methylcarbamoyl)phenyl)piperidine-1-carboxamide]",–,15%
"CCOC(=O)c1cccc(NC(=O)N2CCC(N3CCc4ccc(F)cc43)CC2)c1 [Compound 41, ethyl 3-(4-(6-fluoroindolin-1-yl)piperidine-1-carboxamido)benzoate]",534 nM,53%
"Cc1csc(NC(=O)N2CCC(c3noc4cc(F)ccc34)CC2)n1 [Compound 11, 4-(6-fluorobenzo[d]isoxazol-3-yl)-N-(4-methylthiazol-2-yl)piperidine-1-carboxamide]",–,40%
"CC(C)(C)OC(=O)N1CCc2nc(NC(=O)N3CCC(N4CCc5ccc(F)cc54)CC3)sc2C1 [Compound 34, tert-butyl 2-(4-(6-fluoroindolin-1-yl)piperidine-1-carboxamido)-6,7-dihydrothiazolo[5,4-c]pyridine-5(4H)-carboxylate]",–,35%
"NC(=O)Cc1csc(NC(=O)N2CCC(N3CCc4ccc(F)cc43)CC2)n1 [Compound 30, N-(4-(2-amino-2-oxoethyl)thiazol-2-yl)-4-(6-fluoroindolin-1-yl)piperidine-1-carboxamide]",845 nM,57%
"CCOC(=O)c1ccc(NC(=O)N2CCC(N3CCc4ccc(F)cc43)CC2)cc1 [Compound 42, ethyl 4-(4-(6-fluoroindolin-1-yl)piperidine-1-carboxamido)benzoate]",–,21%
"Cc1csc(NC(=O)N2CCC(c3c[nH]c4ccccc34)CC2)n1 [Compound 65, 4-(1H-indol-3-yl)-N-(4-methylthiazol-2-yl)piperidine-1-carboxamide]",–,2%
"CCCCc1cc(NC(=O)N2CCC(c3noc4ccc(F)cc34)CC2)ccc1F [Compound 8, N-(3-butyl-4-fluorophenyl)-4-(5-fluorobenzo[d]isoxazol-3-yl)piperidine-1-carboxamide]",–,12%
"O=C(Nc1ccc2c(c1)CNCC2)N1CCC(N2CCc3ccc(F)cc32)CC1 [Compound 46, 4-(6-fluoroindolin-1-yl)-N-(1,2,3,4-tetrahydroisoquinolin-7-yl)piperidine-1-carboxamide]",–,27%
"O=C(Nc1nc(CN2CCCCC2)cs1)N1CCC(N2CCc3ccc(F)cc32)CC1 [Compound 31, 4-(6-fluoroindolin-1-yl)-N-(4-(piperidin-1-ylmethyl)thiazol-2-yl)piperidine-1-carboxamide]",–,44%
"CNC(=O)c1csc(NC(=O)N2CCC(N3CCc4ccc(F)cc43)CC2)n1 [Compound 23, 2-(4-(6-fluoroindolin-1-yl)piperidine-1-carboxamido)-N-methylthiazole-4-carboxamide]",> 1000 nM,20%
"O=C(Nc1ccc(CO)cc1)N1CCC(N2CCc3ccc(F)cc32)CC1 [Compound 44, 4-(6-fluoroindolin-1-yl)-N-(4-(hydroxymethyl)phenyl)piperidine-1-carboxamide]",–,31%
"CCOC(=O)Cc1csc(NC(=O)N2CCC(c3noc4ccc(F)cc34)CC2)n1 [Compound 51, ethyl 2-(2-(4-(5-fluorobenzo[d]isoxazol-3-yl)piperidine-1-carboxamido)thiazol-4-yl)acetate]",579 nM,68%
"NC(=O)CN1CCc2nc(NC(=O)N3CCC(N4CCc5ccc(F)cc54)CC3)sc2C1 [Compound 57, N-(5-(2-amino-2-oxoethyl)-4,5,6,7-tetrahydrothiazolo[5,4-c]pyridin-2-yl)-4-(6-fluoroindolin-1-yl)piperidine-1-carboxamide]",–,38%

# — US9238658B2, “Substituted piperidinyl-carboxamide derivatives useful as SCD 1 inhibitors” (Janssen Pharmaceutica NV, priority 2011, dated 2016)
